# Results as given in patent US20230085307A1, “PYRIDAZINONE COMPOUND AND HERBICIDE” (NISSAN CHEMICAL CORPORATION, priority 2019, published 2023).
# What was measured:
# wild oat [1] = assay: Test Example 5: herbicidal effect by foliage application, plastic box (Table 20, symbol I); type: in vivo, wild oat (Avena fatua); conditions: foliage application, 320 g/ha, evaluated three weeks after application
# How it was run: (§1)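 Foliar spray test: emulsion formulation diluted in water to a set application rate, sprayed onto 14-day-old plants raised in diluvial soil at 25° C to 30° C under glass. Both herbicidal effect and crop effect rated visually three weeks later.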
# windgrass [2] = assay: Test Example 5: herbicidal effect by foliage application, plastic box (Table 20, symbol L); type: in vivo, windgrass (Apera spica-venti); conditions: foliage application, 320 g/ha, evaluated three weeks after application
# How it was run: as §1
# redroot pigweed [3] = assay: Test Example 4: herbicidal effect by soil treatment (Table 19, symbol N); type: in vivo, redroot pigweed (Amaranthus retroflexus); conditions: 320 g/ha
# How it was run: (§2)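 Step 1: sow seeds in sterilized diluvial soil, cover ~1.5 cm. Step 2: spray diluted emulsion onto soil surface at predetermined rate. Step 3: greenhouse, 25–30° C, three weeks. Step 4: grade effect on each plant by earlier criteria.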
# windgrass [4] = assay: Test Example 4: herbicidal effect by soil treatment (Table 19, symbol L); type: in vivo, windgrass (Apera spica-venti); conditions: 320 g/ha
# How it was run: as §2
# velvetleaf [5] = assay: Test Example 4: herbicidal effect by soil treatment (Table 19, symbol M); type: in vivo, velvetleaf (Abutilon theophrasti); conditions: 320 g/ha
# How it was run: as §2
# chickweed [6] = assay: Test Example 4: herbicidal effect by soil treatment (Table 19, symbol P); type: in vivo, common chickweed (Stellaria media); conditions: 320 g/ha
# How it was run: as §2
# velvetleaf [7] = assay: Test Example 5: herbicidal effect by foliage application, plastic box (Table 20, symbol M); type: in vivo, velvetleaf (Abutilon theophrasti); conditions: foliage application, 320 g/ha, evaluated three weeks after application
# How it was run: as §1
# oval-leafed pondweed = assay: Test Example 2: herbicidal activity, application during weed generation under submerged conditions (Table 17, symbol C); type: in vivo, oval-leafed pondweed (Monochoria vaginalis); conditions: AAH 320 g/ha; application during weed generation, submerged conditions
# How it was run: (§3)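 Alluvial soil in Wagner pots was flooded to 4 cm depth and sown with the three weeds together; pots were kept in a greenhouse at 25° C. to 30° C. At the one to two leaf stage, an emulsion formulation diluted in water to a set rate went onto the water surface; scored three weeks later.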
# lambsquarters [8] = assay: Test Example 4: herbicidal effect by soil treatment (Table 19, symbol O); type: in vivo, lambsquarters (Chenopodium album); conditions: 320 g/ha
# How it was run: as §2
# green foxtail [9] = assay: Test Example 4: herbicidal effect by soil treatment (Table 19, symbol G); type: in vivo, green foxtail (Setaria viridis); conditions: 320 g/ha
# How it was run: as §2
# persian speedwell [10] = assay: Test Example 5: herbicidal effect by foliage application, plastic box (Table 20, symbol R); type: in vivo, Persian speedwell (Veronica persica); conditions: foliage application, 320 g/ha, evaluated three weeks after application
# How it was run: as §1
# false cleavers [11] = assay: Test Example 5: herbicidal effect by foliage application, plastic box (Table 20, symbol Q); type: in vivo, false cleavers (Galium spurium); conditions: foliage application, 320 g/ha, evaluated three weeks after application
# How it was run: as §1
# persian speedwell [12] = assay: Test Example 4: herbicidal effect by soil treatment (Table 19, symbol R); type: in vivo, Persian speedwell (Veronica persica); conditions: 320 g/ha
# How it was run: as §2
# wild oat [13] = assay: Test Example 4: herbicidal effect by soil treatment (Table 19, symbol I); type: in vivo, wild oat (Avena fatua); conditions: 320 g/ha
# How it was run: as §2
# Italian ryegrass [14] = assay: Test Example 4: herbicidal effect by soil treatment (Table 19, symbol K); type: in vivo, Italian ryegrass (Lolium multiflorum); conditions: 320 g/ha
# How it was run: as §2
# rice flat sedge = assay: Test Example 3: herbicidal effect by foliage application, Wagner pot (Table 18, symbol E); type: in vivo, rice flat sedge (Cyperus iria); conditions: 320 g/ha
# How it was run: (§4)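 Plants were sown in alluvial soil held under 0.1–0.5 cm standing water and grown 14 days in a greenhouse at 25–30 °C. An emulsifiable formulation, water-diluted to the set dose, was then sprayed onto the foliage, and effects were scored three weeks later using previously defined criteria.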
# barnyard grass [15] = assay: Test Example 4: herbicidal effect by soil treatment (Table 19, symbol H); type: in vivo, barnyard grass (Echinochloa crus-galli); conditions: 320 g/ha
# How it was run: as §2
# southern crabgrass [16] = assay: Test Example 5: herbicidal effect by foliage application, plastic box (Table 20, symbol F); type: in vivo, southern crabgrass (Digitaria ciliaris); conditions: foliage application, 320 g/ha, evaluated three weeks after application
# How it was run: as §1
# redroot pigweed [17] = assay: Test Example 5: herbicidal effect by foliage application, plastic box (Table 20, symbol N); type: in vivo, redroot pigweed (Amaranthus retroflexus); conditions: foliage application, 320 g/ha, evaluated three weeks after application
# How it was run: as §1
# blackgrass [18] = assay: Test Example 4: herbicidal effect by soil treatment (Table 19, symbol J); type: in vivo, blackgrass (Alopecurus myosuroides); conditions: 320 g/ha
# How it was run: as §2
# lambsquarters [19] = assay: Test Example 5: herbicidal effect by foliage application, plastic box (Table 20, symbol O); type: in vivo, lambsquarters (Chenopodium album); conditions: foliage application, 320 g/ha, evaluated three weeks after application
# How it was run: as §1
# late watergrass = assay: Test Example 2: herbicidal activity, application during weed generation under submerged conditions (Table 17, symbol A); type: in vivo, late watergrass (Echinochloa oryzicola); conditions: AAH 320 g/ha; application during weed generation, submerged conditions
# How it was run: as §3
# Italian ryegrass [20] = assay: Test Example 5: herbicidal effect by foliage application, plastic box (Table 20, symbol K); type: in vivo, Italian ryegrass (Lolium multiflorum); conditions: foliage application, 320 g/ha, evaluated three weeks after application
# How it was run: as §1
# false cleavers [21] = assay: Test Example 4: herbicidal effect by soil treatment (Table 19, symbol Q); type: in vivo, false cleavers (Galium spurium); conditions: 320 g/ha
# How it was run: as §2
# southern crabgrass [22] = assay: Test Example 4: herbicidal effect by soil treatment (Table 19, symbol F); type: in vivo, southern crabgrass (Digitaria ciliaris); conditions: 320 g/ha
# How it was run: as §2
# Chinese sprangletop = assay: Test Example 3: herbicidal effect by foliage application, Wagner pot (Table 18, symbol D); type: in vivo, chinese sprangletop (Leptochloa chinensis); conditions: 320 g/ha
# How it was run: as §4
# blackgrass [23] = assay: Test Example 5: herbicidal effect by foliage application, plastic box (Table 20, symbol J); type: in vivo, blackgrass (Alopecurus myosuroides); conditions: foliage application, 320 g/ha, evaluated three weeks after application
# How it was run: as §1
# barnyard grass [24] = assay: Test Example 5: herbicidal effect by foliage application, plastic box (Table 20, symbol H); type: in vivo, barnyard grass (Echinochloa crus-galli); conditions: foliage application, 320 g/ha, evaluated three weeks after application
# How it was run: as §1
# barnyard grass [25] = assay: Test Example 3: herbicidal effect by foliage application, Wagner pot (Table 18, symbol H); type: in vivo, barnyard grass (Echinochloa crus-galli); conditions: 320 g/ha
# How it was run: as §4
# green foxtail [26] = assay: Test Example 5: herbicidal effect by foliage application, plastic box (Table 20, symbol G); type: in vivo, green foxtail (Setaria viridis); conditions: foliage application, 320 g/ha, evaluated three weeks after application
# How it was run: as §1
# Japanese bulrush = assay: Test Example 2: herbicidal activity, application during weed generation under submerged conditions (Table 17, symbol B); type: in vivo, Japanese bulrush (Schoenoplectus juncoides); conditions: AAH 320 g/ha; application during weed generation, submerged conditions
# How it was run: as §3
# chickweed [27] = assay: Test Example 5: herbicidal effect by foliage application, plastic box (Table 20, symbol P); type: in vivo, common chickweed (Stellaria media); conditions: foliage application, 320 g/ha, evaluated three weeks after application
# How it was run: as §1
smiles,measurement,setting,value
CCCC(=O)Oc1c(C)nn(C)c(=O)c1-c1c(-c2ccc3c(c2)OCCO3)sc2ccc(F)cc12 [2-093],herbicidal effect on I: wild oat,wild oat [1],0 (Herbicidal rate of 5% or less (almost no effect))
same,herbicidal effect on L: windgrass,windgrass [2],0 (Herbicidal rate of 5% or less (almost no effect))
same,"herbicidal effect rating, N: redroot pigweed",redroot pigweed [3],5 (Herbicidal rate of 90% or more (almost completely withered))
same,"herbicidal effect rating, L: windgrass",windgrass [4],0 (Herbicidal rate of 5% or less (almost no effect))
same,"herbicidal effect rating, M: velvetleaf",velvetleaf [5],5 (Herbicidal rate of 90% or more (almost completely withered))
same,"herbicidal effect rating, P: chickweed",chickweed [6],4 (Herbicidal rate of 70% or more and less than 90%)
same,herbicidal effect on M: velvetleaf,velvetleaf [7],5 (Herbicidal rate of 90% or more (almost completely withered))
same,"herbicidal effect rating, C: oval-leafed pondweed",oval-leafed pondweed,5 (Herbicidal rate of 90% or more (almost completely withered))
same,"herbicidal effect rating, O: lambsquarters",lambsquarters [8],5 (Herbicidal rate of 90% or more (almost completely withered))
same,"herbicidal effect rating, G: green foxtail",green foxtail [9],3 (Herbicidal rate of 40% or more and less than 70%)
same,herbicidal effect on R: persian speedwell,persian speedwell [10],5 (Herbicidal rate of 90% or more (almost completely withered))
same,herbicidal effect on Q: false cleavers,false cleavers [11],4 (Herbicidal rate of 70% or more and less than 90%)
same,"herbicidal effect rating, R: persian speedwell",persian speedwell [12],5 (Herbicidal rate of 90% or more (almost completely withered))
same,"herbicidal effect rating, I: wild oat",wild oat [13],0 (Herbicidal rate of 5% or less (almost no effect))
same,"herbicidal effect rating, K: Italian ryegrass",Italian ryegrass [14],0 (Herbicidal rate of 5% or less (almost no effect))
same,"herbicidal effect on E (rice flat sedge), rating 0-5",rice flat sedge,5 (Herbicidal rate of 90% or more (almost completely withered))
same,"herbicidal effect rating, H: barnyard grass",barnyard grass [15],3 (Herbicidal rate of 40% or more and less than 70%)
same,herbicidal effect on F: southern crabgrass,southern crabgrass [16],3 (Herbicidal rate of 40% or more and less than 70%)
same,herbicidal effect on N: redroot pigweed,redroot pigweed [17],5 (Herbicidal rate of 90% or more (almost completely withered))
same,"herbicidal effect rating, J: blackgrass",blackgrass [18],0 (Herbicidal rate of 5% or less (almost no effect))
same,herbicidal effect on O: lambsquarters,lambsquarters [19],5 (Herbicidal rate of 90% or more (almost completely withered))
same,"herbicidal effect rating, A: late watergrass",late watergrass,3 (Herbicidal rate of 40% or more and less than 70%)
same,herbicidal effect on K: Italian ryegrass,Italian ryegrass [20],0 (Herbicidal rate of 5% or less (almost no effect))
same,"herbicidal effect rating, Q: false cleavers",false cleavers [21],3 (Herbicidal rate of 40% or more and less than 70%)
same,"herbicidal effect rating, F: southern crabgrass",southern crabgrass [22],3 (Herbicidal rate of 40% or more and less than 70%)
same,"herbicidal effect on D (Chinese sprangletop), rating 0-5",Chinese sprangletop,2 (Herbicidal rate of 20% or more and less than 40%)
same,herbicidal effect on J: blackgrass,blackgrass [23],0 (Herbicidal rate of 5% or less (almost no effect))
same,herbicidal effect on H: barnyard grass,barnyard grass [24],3 (Herbicidal rate of 40% or more and less than 70%)
same,"herbicidal effect on H (barnyard grass), rating 0-5",barnyard grass [25],5 (Herbicidal rate of 90% or more (almost completely withered))
same,herbicidal effect on G: green foxtail,green foxtail [26],3 (Herbicidal rate of 40% or more and less than 70%)
same,"herbicidal effect rating, B: Japanese bulrush",Japanese bulrush,5 (Herbicidal rate of 90% or more (almost completely withered))
same,herbicidal effect on P: chickweed,chickweed [27],5 (Herbicidal rate of 90% or more (almost completely withered))
"COc1ccccc1-c1sc2ccc(Cl)cc2c1-c1c(OC)c(C)nn(C)c1=O [Compound No. 2-102, 4-(5-chloro-2-(2-methoxyphenyl)benzo[b]thiophen-3-yl)-5-methoxy-2,6-dimethylpyridazin-3(2H)-one]",melting point,,174 to 175 °C
